Among the data in ChEMBL document CHEMBL3244075, “Synthesis and hypoglycemic activity of some substituted 2-arylthiazolo[3,2-a]pyridinium salts” (J Med Chem, 1978) are Activity values, retold here.

Molecules are shown by their SMILES. Calls of active or inactive are those of the source. No cut-off for these calls is given here.

The subject of data set [1] is Rattus norvegicus. Description: Hypoglycemic activity in 48 hrs-fasted rat assessed as change in blood glucose level at dose equivalent to 68 mg of free base/kg, po measured at 5 hrs relative to control. In kind it is functional.
For data set [2], the system named is Rattus norvegicus. Description: Hypoglycemic activity in 48 hrs-fasted rat assessed as change in blood glucose level at dose equivalent to 68 mg of free base/kg, po measured at 1 hr relative to control. In kind it is functional.
Data set [3] relates to Rattus norvegicus. The data set is described as follows: Hypoglycemic activity in 48 hrs-fasted rat assessed as change in blood glucose level at dose equivalent to 68 mg of free base/kg, po measured at 3 hrs relative to control. In kind it is functional.
Data set [4] deals with Rattus norvegicus. The data set is described as follows: Hypoglycemic activity in 48 hrs-fasted rat assessed as change in blood glucose level at dose equivalent to 68 mg of free base/kg, po measured at 4 hrs relative to control. In kind it is functional.
Data set [5] concerns Rattus norvegicus. The data set is described as follows: Hypoglycemic activity in 48 hrs-fasted rat assessed as change in blood glucose level at dose equivalent to 68 mg of free base/kg, po measured at 2 hrs relative to control. In kind it is functional.
The subject of data set [6] is Rattus norvegicus. The data set is described as follows: Hypoglycemic activity in 48 hrs-fasted rat assessed as change in blood glucose level at dose equivalent to 102 mg of free base/kg, po measured at 2 hrs relative to control. In kind it is functional.
The subject of data set [7] is Rattus norvegicus. The data set is described as follows: Hypoglycemic activity in 48 hrs-fasted rat assessed as change in blood glucose level at dose equivalent to 102 mg of free base/kg, po measured at 1 hr relative to control. In kind it is functional.
Data set [8] concerns Rattus norvegicus. Description: Hypoglycemic activity in 48 hrs-fasted rat assessed as change in blood glucose level at dose equivalent to 102 mg of free base/kg, po measured at 4 hrs relative to control. In kind it is functional.
In data set [9] the test system is Rattus norvegicus. Description: Hypoglycemic activity in 48 hrs-fasted rat assessed as change in blood glucose level at dose equivalent to 102 mg of free base/kg, po measured at 5 hrs relative to control. In kind it is functional.
For data set [10], the system named is Rattus norvegicus. The data set is described as follows: Hypoglycemic activity in 48 hrs-fasted rat assessed as change in blood glucose level at dose equivalent to 102 mg of free base/kg, po measured at 3 hrs relative to control. In kind it is functional.
The species entered for data set [11] is Rattus norvegicus. Description: Hypoglycemic activity in normal fed rat. In kind it is functional, organism-based.
A further data set deals with Kidney. Description: Inhibition of glucose production from lactate in rat kidney cortex at 10^-4 M. In kind it is functional, tissue-based.
Data set [12] has as its system Rattus norvegicus. Description: Hypoglycemic activity in 48 hrs-fasted rat assessed as change in blood glucose level at dose equivalent to 34 mg of free base/kg, po measured at 5 hrs relative to control. In kind it is functional, organism-based.
The species named for data set [13] is Rattus norvegicus. Description: Hypoglycemic activity in streptozotocin-induced diabetic rat model. In kind it is functional, organism-based.
Data set [14] deals with Rattus norvegicus. Description: Toxicity in 48 hrs-fasted rat assessed as elevation in hepatic triglyceride level at dose equivalent to 102 mg of free base/kg, po relative to control. Conditions: in vivo. In kind it is organism-based.
Data set [15] relates to Rattus norvegicus. The data set is described as follows: Toxicity in streptozotocin-induced diabetic rat model assessed as elevation in hepatic triglyceride level up to dose equivalent to 136 mg of free base/kg, po relative to control. In kind it is organism-based. The settings on record: in vivo.
Data set [16] deals with Rattus norvegicus. Description: Toxicity in 48 hrs-fasted rat assessed as elevation in hepatic triglyceride level at dose equivalent to 34 mg of free base/kg, po relative to control. In kind it is organism-based. The settings on record: in vivo.

In the case of `O.[Cl-].c1ccc(-c2c[n+]3ccccc3s2)cc1`, the Activity in the data set on Rattus norvegicus [1] was -39%; in the data set with Rattus norvegicus [2], -4%; in the data set with Rattus norvegicus [3], -31%; with Rattus norvegicus [4] it was -39%; with Rattus norvegicus [5], -13%.
`CC(C)Oc1cccc(-c2c[n+]3ccccc3s2)c1.[O-][Cl+3]([O-])([O-])[O-]`: the Activity was -1% with Rattus norvegicus [6]; 4% in the data set on Rattus norvegicus [7]; 9% with Rattus norvegicus [8]; -10% with Rattus norvegicus [9]; -4% in the data set on Rattus norvegicus [10].
On the same counts, the results for `Cc1ccc2sc(-c3ccccc3)c[n+]2c1.[O-][Cl+3]([O-])([O-])[O-]` are -30%, 19%, -27%, -16% and -26%.
The corresponding values for `[O-][Cl+3]([O-])([O-])[O-].c1cc[n+]2ccsc2c1` are -20%, -14%, -13%, -12% and -15%.
`O=C([O-])C(F)(F)F.c1ccc(-c2c[n+]3ccccc3s2)cc1`: the Activity is reported as -9% in the data set with Rattus norvegicus [6]; -24% in the data set on Rattus norvegicus [1]; -15% in the data set with Rattus norvegicus [3]; -18% in the data set with Rattus norvegicus [4]; -7% in the data set with Rattus norvegicus [7].
For the compound `CS(=O)(=O)c1ccc(-c2c[n+]3ccccc3s2)cc1.[O-][Cl+3]([O-])([O-])[O-]`, the Activity in the data set with Rattus norvegicus [6] is on record as -8%; with Rattus norvegicus [7], 3%; in the data set on Rattus norvegicus [8] it was -6%; in the data set with Rattus norvegicus [9], -2%; with Rattus norvegicus [10], -6%.
`Brc1ccc(-c2c[n+]3ccccc3s2)cc1.O.O=S(=O)([O-])O`: the Activity with Rattus norvegicus [6] was -4%; in the data set on Rattus norvegicus [7] it was 9%; in the data set on Rattus norvegicus [8], -5%; in the data set on Rattus norvegicus [9] it was 1%; in the data set with Rattus norvegicus [10], -1%.
The corresponding values for `O=S(=O)([O-])c1ccc(-c2c[n+]3ccccc3s2)s1` are 5%, -6%, -6%, 6% and -5%.
The corresponding values for `O.[O-][Cl+3]([O-])([O-])[O-].c1ccc(-c2csc3cccc[n+]23)cc1` are -16%, -12%, -12%, -19% and -28%.
On the same counts, the results for `Nc1cccc(-c2c[n+]3ccccc3s2)c1.[O-][Cl+3]([O-])([O-])[O-]` are -16%, -10%, -7%, -8% and -8%.
Regarding `O.[Cl-].c1csc(-c2c[n+]3ccccc3s2)c1`, the Activity in the data set with Rattus norvegicus [6] is -2%; in the data set with Rattus norvegicus [7], 1%; with Rattus norvegicus [8] it was -13%; in the data set on Rattus norvegicus [9], 0%; in the data set with Rattus norvegicus [10] it was -13%.
`Nc1ccc(-c2c[n+]3ccccc3s2)cc1.O.[O-][Cl+3]([O-])([O-])[O-]`: the Activity is 1% in the data set with Rattus norvegicus [6]; -8% in the data set on Rattus norvegicus [7]; -7% with Rattus norvegicus [8]; -14% with Rattus norvegicus [9]; -20% with Rattus norvegicus [10].
On the same counts, the results for `CN(C)/C=N/c1cccc(-c2c[n+]3ccccc3s2)c1.O.[O-][Cl+3]([O-])([O-])[O-]` are 0%, 1%, -1%, 22% and -1%.
As for `O.O=S(=O)([O-])O.c1ccc(-c2c[n+]3ccccc3s2)cc1`, the Activity was -30% in the data set on Rattus norvegicus [1]; -6% in the data set on Rattus norvegicus [2]; -21% in the data set on Rattus norvegicus [3]; -39% in the data set on Rattus norvegicus [4]; -16% in the data set on Rattus norvegicus [5].
Turning to `c1ccc(-c2c[n+]3ccccc3s2)cc1`, the result in the data set listed under Rattus norvegicus [11], with Kidney, in the data set on Rattus norvegicus [12] and in the data set filed under Rattus norvegicus [13] was Active.
On to `[O-][Cl+3]([O-])([O-])[O-].c1ccc(-c2c[n+]3ccccc3s2)cc1`, for which the Activity with Rattus norvegicus [14] is reported as 200%; with Rattus norvegicus [1] it was -28%; in the data set with Rattus norvegicus [15], “Non-toxic”; in the data set with Rattus norvegicus [2] it was -4%; in the data set on Rattus norvegicus [3], -17%; with Rattus norvegicus [4] it was -33%. Further, the Activity entry in the data set on Rattus norvegicus [16] is listed as “Toxic”; with Rattus norvegicus [5] it was -8%.
In the case of `O=S(=O)([O-])c1ccc(-c2ccc(-c3c[n+]4ccccc4s3)cc2)cc1`, the Activity in the data set with Rattus norvegicus [6] amounted to 3%; in the data set on Rattus norvegicus [7], 3%; in the data set with Rattus norvegicus [8], 2%; in the data set on Rattus norvegicus [9] it was 4%; with Rattus norvegicus [10], 13%.
Regarding `Cc1ccc[n+]2cc(-c3ccccc3)sc12.O.[O-][Cl+3]([O-])([O-])[O-]`, the Activity with Rattus norvegicus [6] is given as -42%; with Rattus norvegicus [14] it was 200%; with Rattus norvegicus [7], -17%; in the data set on Rattus norvegicus [8], -59%; with Rattus norvegicus [9] it was -50%; in the data set on Rattus norvegicus [10], -51%.
In the case of `O.[Cl-].c1ccc(-c2ccc(-c3c[n+]4ccccc4s3)cc2)cc1`, the Activity with Rattus norvegicus [6] is -12%; in the data set with Rattus norvegicus [7], -7%; with Rattus norvegicus [8] it was 13%; in the data set with Rattus norvegicus [9], 3%; with Rattus norvegicus [10], -12%.
With `Cc1cc[n+]2cc(-c3ccccc3)sc2c1.[O-][Cl+3]([O-])([O-])[O-]`, the Activity is -4% in the data set on Rattus norvegicus [6]; 14% in the data set with Rattus norvegicus [7]; -29% with Rattus norvegicus [8]; -22% in the data set with Rattus norvegicus [9]; -28% with Rattus norvegicus [10].
On the same counts, the results for `CSc1ccc(-c2c[n+]3ccccc3s2)cc1.O.[O-][Cl+3]([O-])([O-])[O-]` are -11%, -9%, -6%, -2% and -14%.
On the same counts, the results for `CC(=O)Nc1cccc(-c2c[n+]3ccccc3s2)c1.[O-][Cl+3]([O-])([O-])[O-]` are 8%, 12%, 9%, 4% and 3%.
The corresponding values for `O.O=S(=O)([O-])O.O=[N+]([O-])c1cccc(-c2c[n+]3ccccc3s2)c1` are -7%, -10%, -6%, 0% and -6%.
